Literature values in patent publication US11992546B2, “Process of coloring keratinous material comprising the use of an organosilicon compound, an effect pigment, and a sealing reagent vi” (Henkel AG & Co. KGaA, priority 2019, dated 2024).
Read-outs that look alike come from different tables or passages of the source.

solubility in water (at 25° C.)	SMILES	solubility in water (25° C.)
highly soluble	O=C([O-])C1=NN(c2ccc(S(=O)(=O)[O-])cc2)C(=O)C1N=Nc1ccc(S(=O)(=O)[O-])cc1.[Na+].[Na+].[Na+] (stereo not shown) [Acid Yellow 23, trisodium salt of 4,5-dihydro-5-oxo-1-(4-sulfophenyl)-4-((4-sulfophenyl)azo)-1H-pyrazole-3-carboxylic acid]	
	Nc1cc(S(=O)(=O)[O-])cc2cc(S(=O)(=O)[O-])c(N=Nc3ccccc3)c(O)c12.[Na+].[Na+] [Acid Red 33, disodium salt of 5-amino-4-hydroxy-3-(phenylazo)-naphthalene-2,7-disulphonate]	2500 µg/mL
	O=S(=O)([O-])c1ccc(N=Nc2c(O)ccc3ccccc23)cc1.[Na+] [Acid Orange 7, sodium salt of 4-[(2-hydroxy-1-naphthyl)azo]benzene sulphonate]	more than 7 g/L
	O=C([O-])c1c(Cl)c(Cl)c(Cl)c(Cl)c1-c1c2c(Br)cc(=O)c(Br)c-2oc2c(Br)c(O)cc(Br)c12.O=C([O-])c1c(Cl)c(Cl)c(Cl)c(Cl)c1-c1c2c(Br)cc(=O)c(Br)c-2oc2c(Br)c(O)cc(Br)c12.[Na+].[Na+] [Acid Red 92, disodium salt of 3,4,5,6-tetrachloro-2-(1,4,5,8-tetrabromo-6-hydroxy-3-oxoxanthen-9-yl)benzoic acid]	greater than 10 g/L
